HELM strings list units from the 5' end as sugar, base in round brackets, then linkage (d deoxyribose, r ribose, m 2'-O-methyl, p phosphodiester). Strings are as the collection lists them; they lack the last nucleoside at the 3' end of the tested compound. [moe] = 2'-O-(2-methoxyethyl) (MOE); [sp] = phosphorothioate linkage; [m5C] = 5-methylcytosine
molecular target: PRNP; test: mouse, dose not given; conditions: ASO

Row | Substance | 3 h FOB score
1 | RNA1{[moe](T)[sp].[moe](G)p.[moe](T)p.[moe]([m5C])p.[moe](A)[sp].d(G)[sp].d(T)[sp].d(T)[sp].d(T)[sp].d(T)[sp].d(T)[sp].d([m5C])[sp].d([m5C])[sp].d([m5C])[sp].d([m5C])[sp].[moe](A)p.[moe]([m5C])p.[moe](A)[sp].[moe](T)}$$$$ (last 3' nucleoside missing) | 0 score 0-7
2 | RNA1{[moe]([m5C])[sp].[moe](T)p.[moe](G)p.[moe](G)p.[moe](T)[sp].d(G)[sp].d(A)[sp].d(T)[sp].d(T)[sp].d(T)[sp].d(T)[sp].d(T)[sp].d(T)[sp].d([m5C])[sp].d([m5C])[sp].[moe](T)p.[moe](T)p.[moe](T)[sp].[moe]([m5C])}$$$$ (last 3' nucleoside missing) | 0 score 0-7
3 | RNA1{[moe](A)[sp].[moe](T)p.[moe](G)p.[moe](G)p.[moe](T)[sp].d(G)[sp].d([m5C])[sp].d(T)[sp].d(T)[sp].d(T)[sp].d([m5C])[sp].d(A)[sp].d([m5C])[sp].d(A)[sp].d(A)[sp].[moe]([m5C])p.[moe](T)p.[moe](G)[sp].[moe]([m5C])}$$$$ (last 3' nucleoside missing) | 1 score 0-7
4 | RNA1{[moe](G)[sp].[moe](T)p.[moe]([m5C])p.[moe](A)p.d(T)[sp].d(A)[sp].d(A)[sp].d(T)[sp].d(T)[sp].d(T)[sp].d(T)[sp].d([m5C])[sp].d(T)[sp].d(T)[sp].[moe](A)p.[moe](G)p.[moe]([m5C])p.[moe](T)[sp].[moe](A)}$$$$ (last 3' nucleoside missing) | 0.25 score 0-7
5 | RNA1{[moe](G)[sp].[moe](T)p.[moe](G)p.[moe](T)p.d([m5C])[sp].d(A)[sp].d(T)[sp].d(A)[sp].d(A)[sp].d(T)[sp].d(T)[sp].d(T)[sp].d(T)[sp].d([m5C])[sp].[moe](T)p.[moe](T)p.[moe](A)p.[moe](G)[sp].[moe]([m5C])}$$$$ (last 3' nucleoside missing) | 0 score 0-7
6 | RNA1{[moe]([m5C])[sp].[moe](T)p.[moe]([m5C])p.d(T)[sp].d(A)[sp].d(T)[sp].d(G)[sp].d(T)[sp].d(T)[sp].d(T)[sp].d(T)[sp].d([m5C])[sp].d([m5C])[sp].[moe](A)p.[moe](G)p.[moe](T)p.[moe](G)p.[moe]([m5C])[sp].[moe]([m5C])}$$$$ (last 3' nucleoside missing) | 3 score 0-7
7 | RNA1{[moe](A)[sp].[moe](T)p.[moe](T)p.[moe](T)p.[moe](A)[sp].d([m5C])[sp].d(T)[sp].d([m5C])[sp].d(T)[sp].d(T)[sp].d(G)[sp].d(T)[sp].d(T)[sp].d(G)[sp].d(A)[sp].[moe](A)p.[moe]([m5C])p.[moe](A)[sp].[moe](G)}$$$$ (last 3' nucleoside missing) | 3.75 score 0-7
8 | RNA1{[moe](G)[sp].[moe]([m5C])p.[moe](T)p.[moe]([m5C])p.[moe](T)[sp].d(A)[sp].d(T)[sp].d(T)[sp].d(A)[sp].d(A)[sp].d(T)[sp].d(A)[sp].d(G)[sp].d(G)[sp].d(T)[sp].[moe](T)p.[moe](A)p.[moe](G)[sp].[moe](G)}$$$$ (last 3' nucleoside missing) | 4.25 score 0-7
9 | RNA1{[moe](A)[sp].[moe]([m5C])p.[moe](T)p.[moe]([m5C])p.[moe](T)[sp].d(A)[sp].d(T)[sp].d(G)[sp].d(T)[sp].d(T)[sp].d(T)[sp].d(T)[sp].d([m5C])[sp].d([m5C])[sp].d(A)[sp].[moe](G)p.[moe](T)p.[moe](G)[sp].[moe]([m5C])}$$$$ (last 3' nucleoside missing) | 2 score 0-7
10 | RNA1{[moe](T)[sp].[moe]([m5C])p.[moe](A)p.[moe](G)p.[moe](T)[sp].d(G)[sp].d(T)[sp].d(T)[sp].d(G)[sp].d(T)[sp].d(G)[sp].d(A)[sp].d([m5C])[sp].d(A)[sp].d(A)[sp].[moe](T)p.[moe](A)p.[moe](T)[sp].[moe](T)}$$$$ (last 3' nucleoside missing) | 4.25 score 0-7
11 | RNA1{[moe](T)[sp].[moe]([m5C])p.[moe](T)p.[moe](A)p.[moe](T)[sp].d(G)[sp].d(T)[sp].d(T)[sp].d(T)[sp].d(T)[sp].d([m5C])[sp].d([m5C])[sp].d(A)[sp].[moe](G)p.[moe](T)p.[moe](G)[sp].[moe]([m5C])}$$$$ (last 3' nucleoside missing) | 0 score 0-7
12 | RNA1{[moe](G)[sp].[moe](T)p.[moe](G)p.[moe](T)p.[moe]([m5C])p.d(A)[sp].d(T)[sp].d(A)[sp].d(A)[sp].d(T)[sp].d(T)[sp].d(T)[sp].d(T)[sp].d([m5C])[sp].[moe](T)[sp].[moe](T)p.[moe](A)p.[moe](G)}$$$$ (last 3' nucleoside missing) | 0 score 0-7
13 | RNA1{[moe](T)[sp].[moe](G)p.[moe](G)p.[moe](T)p.[moe](T)[sp].d(A)[sp].d(T)[sp].d(T)[sp].d(T)[sp].d(T)[sp].d(A)[sp].d(A)[sp].d(T)[sp].d(A)[sp].d(G)[sp].[moe](A)p.[moe](T)p.[moe](G)[sp].[moe](T)}$$$$ (last 3' nucleoside missing) | 1 score 0-7
14 | RNA1{[moe](G)[sp].[moe](G)p.[moe]([m5C])p.[moe](A)p.[moe]([m5C])[sp].d(T)[sp].d(T)[sp].d(T)[sp].d([m5C])[sp].d(T)[sp].d(T)[sp].d(T)[sp].d(T)[sp].d(T)[sp].d(A)[sp].[moe](T)p.[moe](T)p.[moe](T)[sp].[moe]([m5C])}$$$$ (last 3' nucleoside missing) | 1 score 0-7
15 | RNA1{[moe](G)[sp].[moe](T)p.[moe]([m5C])p.[moe](A)p.[moe](T)[sp].d(A)[sp].d(A)[sp].d(T)[sp].d(T)[sp].d(T)[sp].d(T)[sp].d([m5C])[sp].d(T)[sp].d(T)[sp].d(A)[sp].[moe](G)p.[moe]([m5C])p.[moe](T)[sp].[moe](A)}$$$$ (last 3' nucleoside missing) | 0 score 0-7
16 | RNA1{[moe]([m5C])[sp].[moe](T)p.[moe](A)p.[moe](T)p.[moe](G)[sp].d(T)[sp].d(T)[sp].d(T)[sp].d(T)[sp].d([m5C])[sp].d([m5C])[sp].d(A)[sp].d(G)[sp].[moe](T)p.[moe](G)p.[moe]([m5C])[sp].[moe]([m5C])}$$$$ (last 3' nucleoside missing) | 0 score 0-7
17 | RNA1{[moe](T)[sp].[moe]([m5C])p.[moe](T)p.[moe](A)p.[moe](T)[sp].d(G)[sp].d(T)[sp].d(T)[sp].d(T)[sp].d(T)[sp].d([m5C])[sp].d([m5C])[sp].d(A)[sp].d(G)[sp].d(T)[sp].[moe](G)p.[moe]([m5C])p.[moe]([m5C])[sp].[moe]([m5C])}$$$$ (last 3' nucleoside missing) | 0 score 0-7
18 | RNA1{[moe](G)[sp].[moe]([m5C])p.[moe](T)p.[moe](T)p.[moe](A)[sp].d(T)[sp].d(T)[sp].d(A)[sp].d(T)[sp].d(T)[sp].d([m5C])[sp].d(A)[sp].d(T)[sp].d(G)[sp].d(T)[sp].[moe](T)p.[moe]([m5C])p.[moe](T)[sp].[moe]([m5C])}$$$$ (last 3' nucleoside missing) | 3.5 score 0-7
19 | RNA1{[moe](T)[sp].[moe]([m5C])p.[moe](A)p.[moe](G)p.[moe](T)p.d(T)[sp].d(T)[sp].d(T)[sp].d(T)[sp].d([m5C])[sp].d([m5C])[sp].d([m5C])[sp].d([m5C])[sp].d(A)[sp].[moe]([m5C])p.[moe](A)p.[moe](T)[sp].[moe](A)}$$$$ (last 3' nucleoside missing) | 0 score 0-7
20 | RNA1{[moe](G)[sp].[moe]([m5C])[sp].[moe]([m5C])[sp].[moe](A)[sp].[moe]([m5C])[sp].d(A)[sp].d(T)[sp].d(A)[sp].d(T)[sp].d(A)[sp].d(G)[sp].d(G)[sp].d(G)[sp].d(T)[sp].d([m5C])[sp].[moe]([m5C])[sp].[moe](T)[sp].[moe](T)[sp].[moe](T)}$$$$ (last 3' nucleoside missing) | 4.25 score 0-7
21 | RNA1{[moe](A)[sp].[moe]([m5C])p.[moe](A)p.[moe](A)p.[moe](T)[sp].d([m5C])[sp].d(T)[sp].d(G)[sp].d(T)[sp].d(T)[sp].d(G)[sp].d(T)[sp].d(G)[sp].d(G)[sp].d(T)[sp].[moe](T)p.[moe]([m5C])p.[moe](A)[sp].[moe](G)}$$$$ (last 3' nucleoside missing) | 6.5 score 0-7
22 | RNA1{[moe](A)[sp].[moe](G)p.[moe]([m5C])p.[moe](T)p.[moe]([m5C])[sp].d(T)[sp].d([m5C])[sp].d([m5C])[sp].d(T)[sp].d(G)[sp].d(T)[sp].d(A)[sp].d(T)[sp].d(G)[sp].d(T)[sp].[moe]([m5C])p.[moe](A)p.[moe](A)[sp].[moe](A)}$$$$ (last 3' nucleoside missing) | 4.75 score 0-7
23 | RNA1{[moe](T)[sp].[moe](T)p.[moe](T)p.[moe](G)p.[moe](G)[sp].d(A)[sp].d(G)[sp].d(G)[sp].d([m5C])[sp].d(T)[sp].d([m5C])[sp].d(T)[sp].d(T)[sp].d(T)[sp].d(T)[sp].[moe](A)p.[moe](G)p.[moe](G)[sp].[moe](T)}$$$$ (last 3' nucleoside missing) | 4 score 0-7
24 | RNA1{[moe](A)[sp].[moe]([m5C])p.[moe](A)p.[moe](T)p.[moe](T)[sp].d(T)[sp].d(A)[sp].d(T)[sp].d(T)[sp].d(T)[sp].d([m5C])[sp].d(A)[sp].d(T)[sp].d(G)[sp].d(T)[sp].[moe](G)p.[moe]([m5C])p.[moe]([m5C])[sp].[moe](A)}$$$$ (last 3' nucleoside missing) | 3 score 0-7
25 | RNA1{[moe](G)[sp].[moe](T)p.[moe](T)p.[moe]([m5C])p.[moe](A)[sp].d(G)[sp].d(T)[sp].d(G)[sp].d(T)[sp].d(T)[sp].d(G)[sp].d(T)[sp].d(G)[sp].d(A)[sp].d([m5C])[sp].[moe](A)p.[moe](A)p.[moe](T)[sp].[moe](A)}$$$$ (last 3' nucleoside missing) | 6.75 score 0-7
26 | RNA1{[moe](G)[sp].[moe]([m5C])p.[moe](T)p.[moe](T)p.[moe](A)[sp].d([m5C])[sp].d(T)[sp].d([m5C])[sp].d(G)[sp].d(G)[sp].d([m5C])[sp].d(T)[sp].d(T)[sp].d(G)[sp].d(T)[sp].[moe](T)p.[moe]([m5C])p.[moe]([m5C])[sp].[moe](A)}$$$$ (last 3' nucleoside missing) | 5.25 score 0-7
